In patent US20170184612A1, “USE OF LEUKOCYTES AND NOVEL BIOMARKERS IN THE DIAGNOSIS, CONFIRMATION, AND TREATMENT OF A NEUROLOGICAL DISORDER” (The Trustees of Columbia University in the City of New York, priority 2014, published 2017):

Tests used:
[1] = tested on: peripheral blood mononuclear cells (PBMC), T cells; assay: ELISpot assay, gamma-interferon release (SFC) after stimulation with a-synuclein epitope pools; format: cell-based, human; settings: for Pool +: IFNg, Pool Stimulated, number of donors with a positive response, Donors tested 1; for IFNg Peptide + (donors positive to the peptide): of donors tested (peptide); for IFNg Peptide +: number of donors positive to the single peptide
Procedure, shortened: (§1)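 Readout is colorimetric counting of spot-forming cells, with at least 20 SFC per million cells required to confirm cytokine release. Patient and control mononuclear cells had been exposed for 22 hours at 37 C to pooled α-synuclein peptides, including phosphorylated S129 epitopes.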

[2] = tested on: peripheral blood mononuclear cells (PBMC), T cells; assay: ELISpot assay, IL-5 release (SFC) after stimulation with a-synuclein epitope pools; format: cell-based, human; settings: for IL-g Peptide + (donors positive to the peptide): of donors tested (peptide); for IL-g Peptide +: number of donors positive to the single peptide
Procedure, shortened: as §1

[3] = Patients Summary, PD patients, single peptide
[4] = second 'Pool Stimulated' section (from r296), 12 donors tested
[5] = peptide + / donors tested (peptide), second 'Pool Stimulated' section (from r296), 12 donors tested
[6] = single peptide, second 'Pool Stimulated' section (from r296), 12 donors tested

## 3521.0069 (GVAEAAGKTK; listed as Homo sapiens)
[1]
  Pool +: 0
[1]; Patients Summary, PD patients
  IFNg Peptide + (donors positive to the peptide): 1
[1]; [3]
  IFNg Avg SFC: 53 SFC
  IFNg Response Frequency: 13%
  IFNg Total SFC: 53 SFC
[1]; [4]
  IFNg Peptide +: 0
[1]; [5]
  IFNg Response Frequency: 0%
[1]; [6]
  IFNg Total SFC: 0 SFC
[2]; Patients Summary, PD patients
  IL-g Peptide + (donors positive to the peptide): 0
[2]; [3]
  IL-g Response Frequency: 0%
  IL-g Total SFC: 0 SFC
[2]; [4]
  IL-g Peptide +: 0
[2]; [5]
  IL-g Response Frequency: 0%
[2]; [6]
  IL-g Total SFC: 0 SFC

## 3521.0071 (YVGSKTKEGVVHGVT; listed as Homo sapiens)
[1]
  Pool +: 0
[1]; Patients Summary, PD patients
  IFNg Peptide + (donors positive to the peptide): 0
[1]; [3]
  IFNg Response Frequency: 0%
  IFNg Total SFC: 0 SFC
[2]; Patients Summary, PD patients
  IL-g Peptide + (donors positive to the peptide): 1
[2]; [3]
  IL-g Avg SFC: 35 SFC
  IL-g Response Frequency: 17%
  IL-g Total SFC: 35 SFC

## 3521.0072 (EGVVHGVTTVAEKTK; listed as Homo sapiens)
[1]
  Pool +: 1
[1]; Patients Summary, PD patients
  IFNg Peptide + (donors positive to the peptide): 0
[1]; [3]
  IFNg Response Frequency: 0%
  IFNg Total SFC: 0 SFC
[1]; [4]
  IFNg Peptide +: 1
[1]; [5]
  IFNg Response Frequency: 50%
[1]; [6]
  IFNg Avg SFC: 93.3 SFC
  IFNg Total SFC: 93.3 SFC
[2]; Patients Summary, PD patients
  IL-g Peptide + (donors positive to the peptide): 0
[2]; [3]
  IL-g Response Frequency: 0%
  IL-g Total SFC: 0 SFC
[2]; [4]
  IL-g Peptide +: 0
[2]; [5]
  IL-g Response Frequency: 0%
[2]; [6]
  IL-g Total SFC: 0 SFC

## 3521.0073 (TTVAEKTKEQVTNVG; listed as Homo sapiens)
[1]
  Pool +: 1
[1]; Patients Summary, PD patients
  IFNg Peptide + (donors positive to the peptide): 0
[1]; [3]
  IFNg Response Frequency: 0%
  IFNg Total SFC: 0 SFC
[1]; [4]
  IFNg Peptide +: 0
[1]; [5]
  IFNg Response Frequency: 0%
[1]; [6]
  IFNg Total SFC: 0 SFC
[2]; Patients Summary, PD patients
  IL-g Peptide + (donors positive to the peptide): 0
[2]; [3]
  IL-g Response Frequency: 0%
  IL-g Total SFC: 0 SFC
[2]; [4]
  IL-g Peptide +: 0
[2]; [5]
  IL-g Response Frequency: 0%
[2]; [6]
  IL-g Total SFC: 0 SFC

## 3521.0075 (KQGVAEAPGKTKEGV; listed as Homo sapiens)
[1]
  Pool +: 1
[1]; Patients Summary, PD patients
  IFNg Peptide + (donors positive to the peptide): 3
[1]; [3]
  IFNg Avg SFC: 70 SFC
  IFNg Response Frequency: 38%
  IFNg Total SFC: 209 SFC
[1]; [4]
  IFNg Peptide +: 0
[1]; [5]
  IFNg Response Frequency: 0%
[1]; [6]
  IFNg Total SFC: 0 SFC
[2]; Patients Summary, PD patients
  IL-g Peptide + (donors positive to the peptide): 1
[2]; [3]
  IL-g Avg SFC: 58 SFC
  IL-g Response Frequency: 13%
  IL-g Total SFC: 58 SFC
[2]; [4]
  IL-g Peptide +: 1
[2]; [5]
  IL-g Response Frequency: 50%
[2]; [6]
  IL-g Avg SFC: 147 SFC
  IL-g Total SFC: 147 SFC

## 3521.0076 (PGKTKEGVLYVGSKT; listed as Homo sapiens)
[1]
  Pool +: 1
[1]; Patients Summary, PD patients
  IFNg Peptide + (donors positive to the peptide): 2
[1]; [3]
  IFNg Avg SFC: 40 SFC
  IFNg Response Frequency: 25%
  IFNg Total SFC: 80 SFC
[1]; [4]
  IFNg Peptide +: 1
[1]; [5]
  IFNg Response Frequency: 50%
[1]; [6]
  IFNg Avg SFC: 300 SFC
  IFNg Total SFC: 300 SFC
[2]; Patients Summary, PD patients
  IL-g Peptide + (donors positive to the peptide): 1
[2]; [3]
  IL-g Avg SFC: 89 SFC
  IL-g Response Frequency: 13%
  IL-g Total SFC: 89 SFC
[2]; [4]
  IL-g Peptide +: 1
[2]; [5]
  IL-g Response Frequency: 50%
[2]; [6]
  IL-g Avg SFC: 120 SFC
  IL-g Total SFC: 120 SFC

## 3521.0077 (KTKEGVLYVGSKTKK; listed as Homo sapiens)
[1]
  Pool +: 1
[1]; Patients Summary, PD patients
  IFNg Peptide + (donors positive to the peptide): 5
[1]; [3]
  IFNg Avg SFC: 701 SFC
  IFNg Response Frequency: 63%
  IFNg Total SFC: 3505 SFC
[1]; [4]
  IFNg Peptide +: 2
[1]; [5]
  IFNg Response Frequency: 100%
[1]; [6]
  IFNg Avg SFC: 1510 SFC
  IFNg Total SFC: 3020 SFC
[2]; Patients Summary, PD patients
  IL-g Peptide + (donors positive to the peptide): 6
[2]; [3]
  IL-g Avg SFC: 595 SFC
  IL-g Response Frequency: 75%
  IL-g Total SFC: 3565 SFC
[2]; [4]
  IL-g Peptide +: 2
[2]; [5]
  IL-g Response Frequency: 100%
[2]; [6]
  IL-g Avg SFC: 3907 SFC
  IL-g Total SFC: 1814 SFC

## 3521.0078 (YVGSKTKKGVVHGVA; listed as Homo sapiens)
[1]
  Pool +: 0
[1]; Patients Summary, PD patients
  IFNg Peptide + (donors positive to the peptide): 1
[1]; [3]
  IFNg Avg SFC: 474 SFC
  IFNg Response Frequency: 17%
  IFNg Total SFC: 474 SFC
[2]; Patients Summary, PD patients
  IL-g Peptide + (donors positive to the peptide): 1
[2]; [3]
  IL-g Avg SFC: 93 SFC
  IL-g Response Frequency: 17%
  IL-g Total SFC: 93 SFC

## 3521.0079 (KGVVHGVATVAEKTK; listed as Homo sapiens)
[1]
  Pool +: 1
[1]; Patients Summary, PD patients
  IFNg Peptide + (donors positive to the peptide): 0
[1]; [3]
  IFNg Response Frequency: 0%
  IFNg Total SFC: 0 SFC
[1]; [4]
  IFNg Peptide +: 0
[1]; [5]
  IFNg Response Frequency: 0%
[1]; [6]
  IFNg Total SFC: 0 SFC
[2]; Patients Summary, PD patients
  IL-g Peptide + (donors positive to the peptide): 0
[2]; [3]
  IL-g Response Frequency: 0%
  IL-g Total SFC: 0 SFC
[2]; [4]
  IL-g Peptide +: 1
[2]; [5]
  IL-g Response Frequency: 50%
[2]; [6]
  IL-g Avg SFC: 284 SFC
  IL-g Total SFC: 284 SFC

## 3521.0084 (YVGSKTKEGVVHGVA; listed as Homo sapiens)
[1]
  Pool +: 0
[1]; Patients Summary, PD patients
  IFNg Peptide + (donors positive to the peptide): 0
[1]; [3]
  IFNg Response Frequency: 0%
  IFNg Total SFC: 0 SFC
[2]; Patients Summary, PD patients
  IL-g Peptide + (donors positive to the peptide): 0
[2]; [3]
  IL-g Response Frequency: 0%
  IL-g Total SFC: 0 SFC

## 3521.0085 (EGVVHGVATVAEKTK; listed as Homo sapiens)
[1]
  Pool +: 1
[1]; Patients Summary, PD patients
  IFNg Peptide + (donors positive to the peptide): 0
[1]; [3]
  IFNg Response Frequency: 0%
  IFNg Total SFC: 0 SFC
[1]; [4]
  IFNg Peptide +: 0
[1]; [5]
  IFNg Response Frequency: 0%
[1]; [6]
  IFNg Total SFC: 0 SFC
[2]; Patients Summary, PD patients
  IL-g Peptide + (donors positive to the peptide): 0
[2]; [3]
  IL-g Response Frequency: 0%
  IL-g Total SFC: 0 SFC
[2]; [4]
  IL-g Peptide +: 1
[2]; [5]
  IL-g Response Frequency: 50%
[2]; [6]
  IL-g Avg SFC: 80 SFC
  IL-g Total SFC: 80 SFC

## 3521.0086 (ATVAEKTKEQVTNVG; listed as Homo sapiens)
[1]
  Pool +: 1
[1]; Patients Summary, PD patients
  IFNg Peptide + (donors positive to the peptide): 0
[1]; [3]
  IFNg Response Frequency: 0%
  IFNg Total SFC: 0 SFC
[1]; [4]
  IFNg Peptide +: 0
[1]; [5]
  IFNg Response Frequency: 0%
[1]; [6]
  IFNg Total SFC: 0 SFC
[2]; Patients Summary, PD patients
  IL-g Peptide + (donors positive to the peptide): 0
[2]; [3]
  IL-g Response Frequency: 0%
  IL-g Total SFC: 0 SFC
[2]; [4]
  IL-g Peptide +: 0
[2]; [5]
  IL-g Response Frequency: 0%
[2]; [6]
  IL-g Total SFC: 0 SFC
